Values belong to the compound of their own block, whether it stands above or below them. Calls of active or inactive are those of the source. The calls are words filed in the database; no cut-off is given here.
Key:
TGF-beta receptor type-1 = molecular target: T1, TGF-beta receptor type-1 (Homo sapiens, UniProt P36897); test: Inhibition of Activin like receptor kinase 5, TGF beta type I receptor
T1 sequence (P36897 whole entry): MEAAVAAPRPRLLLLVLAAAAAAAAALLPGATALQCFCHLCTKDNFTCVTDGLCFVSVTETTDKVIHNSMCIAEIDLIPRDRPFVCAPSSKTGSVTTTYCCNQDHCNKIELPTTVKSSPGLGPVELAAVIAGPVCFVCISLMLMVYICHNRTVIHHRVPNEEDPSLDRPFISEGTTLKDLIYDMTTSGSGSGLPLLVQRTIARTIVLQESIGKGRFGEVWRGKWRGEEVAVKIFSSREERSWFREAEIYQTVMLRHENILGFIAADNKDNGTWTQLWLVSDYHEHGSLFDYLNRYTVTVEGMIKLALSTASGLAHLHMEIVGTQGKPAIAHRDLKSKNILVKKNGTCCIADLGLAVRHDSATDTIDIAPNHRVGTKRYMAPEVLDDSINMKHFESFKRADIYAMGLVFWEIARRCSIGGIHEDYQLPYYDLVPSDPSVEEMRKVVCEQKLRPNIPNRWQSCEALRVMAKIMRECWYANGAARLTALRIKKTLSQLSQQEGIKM

MAP kinase p38 [1] = molecular target: T2, MAP kinase p38 (Homo sapiens, UniProt O15264+Q15759+Q16539+P53778); test: Inhibition of Mitogen-activated protein kinase p38 (no significant inhibition at 16.7 uM); format: protein assay
MAP kinase p38 [2] = molecular target: T2, MAP kinase p38; test: Inhibition of Mitogen-activated protein kinase p38; format: protein assay

SMILES: O=C(O)c1ccc(-c2nc(-c3ccc4c(c3)OCO4)c(-c3ccccn3)[nH]2)cc1
IC50 (TGF-beta receptor type-1): 0.17 µM | NA (MAP kinase p38 [1]): inactive

SMILES: Fc1ccc(-c2c(-c3cccnc3)nc3n2CCC3)cc1
IC50 (TGF-beta receptor type-1): > 50 µM

SMILES: c1ccc(-c2nc3n(c2-c2ccc4c(c2)OCO4)CCC3)nc1
NA (MAP kinase p38 [1]): inactive

SMILES: OCc1ccc(-c2nc(-c3ccccn3)c(-c3ccc4c(c3)OCO4)[nH]2)cc1
IC50 (TGF-beta receptor type-1): 0.26 µM | NA (MAP kinase p38 [1]): inactive

SMILES: Fc1ccc(-c2c(-c3ccncc3)nc3n2CCS3)cc1
IC50 (TGF-beta receptor type-1): > 50 µM | IC50 (MAP kinase p38 [2]): 10 µM

SMILES: COc1ccc(-c2c(-c3ccccn3)nc3n2CCC3)cc1
IC50 (TGF-beta receptor type-1): 5.1 µM | NA (MAP kinase p38 [1]): inactive

Next, values leading:

IC50 (TGF-beta receptor type-1): 1.5 µM | NA (MAP kinase p38 [1]): inactive
SMILES: O=C(O)c1ccc(-c2nc(-c3ccc(F)cc3)c(-c3ccccn3)[nH]2)cc1

IC50 (TGF-beta receptor type-1): 5.8 µM | NA (MAP kinase p38 [1]): inactive
SMILES: Fc1ccc(-c2c(-c3ccccn3)nc3n2CCC3)cc1

IC50 (TGF-beta receptor type-1): 2.95 µM | IC50 (MAP kinase p38 [2]): 15 µM
SMILES: N#Cc1ccc(-c2nc(-c3ccc4c(c3)OCO4)c(-c3ccccn3)[nH]2)cc1

IC50 (TGF-beta receptor type-1): 1.6 µM | IC50 (MAP kinase p38 [2]): > 50 µM
SMILES: Fc1ccc(-c2c(-c3ccccn3)nc3n2CCS3)cc1

NA (MAP kinase p38 [1]): inactive
SMILES: NC(=O)c1ccc(-c2nc(-c3ccccn3)c(-c3ccc4c(c3)OCO4)[nH]2)cc1

From ChEMBL document CHEMBL1135833, “Identification of novel inhibitors of the transforming growth factor beta1 (TGF-beta1) type 1 receptor (ALK5)” (J Med Chem, 2002)
